Experimental findings from PMC6233306 (Bioorganic & medicinal chemistry letters, 2018) are described below.

This experiment relates to FadD32 mutant strains of Mtb (E120 and F291). The experiment is classed as cell-based, Mycobacterium tuberculosis.
For `Cc1cc2nccc(-c3ccccc3)c2c(C)c1-c1ccc(CN2CCOCC2)cc1` [Compound 8], the “activity versus the E120 and F291 mutants compared to wild-type” value was “markedly less activity”. With `Cc1cc2nccc(-c3ccnn3C)c2c(C)c1-c1ccc(CN2CCOCC2)cc1` [Compound 15m], the “FadD32 mutant MIC90” value was 100 µM; the “activity versus the E120 and F291 mutants compared to wild-type” value is on record as “markedly less activity”.

As for `Cc1cc2nccc(-c3cncnc3)c2c(C)c1-c1ccc(CN2CCOCC2)cc1` [Compound 15n], the “FadD32 mutant MIC90” value worked out at 100 µM; the “activity versus the E120 and F291 mutants compared to wild-type” value is recorded as “markedly less activity”.

As to `CNC(=O)c1cc(-c2ccccc2Cl)c2c(C)c(-c3ccncc3)c(C)cc2n1` [Compound 21b], the “activity versus the E120 and F291 mutants compared to wild-type” value is “markedly less activity”.
